The source of these data is patent US12398154B2, “Azaquinazoline pan-KRas inhibitors” (Mirati Therapeutics, Inc., priority 2020, dated 2025).

The IC50 is the point on the concentration scale where inhibition reaches its midpoint. A low value points to higher potency.

For experiment [1], the target named is KRas G12R (Homo sapiens, UniProt P01116, G12R). Description: biochemical.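 Note: TR-FRET displacement assay of compound binding to KRas, read after one hour at room temperature, potency from a four-parameter fit of percent-of-control values.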
Sequence of KRas G12R (P01116 1-169 isoform P01116-2 G12R): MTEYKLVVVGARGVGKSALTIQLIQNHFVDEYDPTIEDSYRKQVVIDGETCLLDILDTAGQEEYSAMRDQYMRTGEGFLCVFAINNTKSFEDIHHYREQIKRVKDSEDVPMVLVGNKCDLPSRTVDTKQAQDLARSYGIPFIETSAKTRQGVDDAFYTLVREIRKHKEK
Method: (§2) The ability of a compound to bind to KRas was measured using a TR-FRET displacement assay. […] After a 60-minute incubation at room temperature, the reaction was measured using a BMG LABTECH CLARIO star Plus via TR-FRET. […] The POC values were fit to a 4-parameter IC50 equation and the IC50 value reported.
Experiment [2] relates to phospho-ERK in NCI-H460 (Q61H) cells. Description: Inhibition of KRas-mediated phosphorylation of ERK (in-cell western). The format is cell-based. The conditions noted are these: 3 hours compound, phospho-ERK normalized to GAPDH. Summed up: (§1)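 IC50 came from 4-parameter dose-response fits of phospho-ERK (Thr202/Tyr204)/GAPDH signal, expressed as % DMSO control. Compounds were applied for 3 h at 0.5% DMSO before fixation, methanol permeabilization and antibody imaging by in-cell western.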

The subject of experiment [3] is phospho-ERK in A549 (G12S) cells. The description is as above. The conditions noted are these: Homo sapiens, 3 hours compound, phospho-ERK normalized to GAPDH. It is filed as cell-based. Summed up: as §1
Experiment [4] has as its system phospho-ERK in AsPC-1 (G12D) cells. Described as above. The conditions noted are these: 3 hours compound, phospho-ERK normalized to GAPDH. The format is cell-based. The gist of the method:
as §1

Experiment [5] deals with phospho-ERK in NCI-H358 (G12C) cells. The description is as above. It is filed as cell-based. The conditions noted are these: Homo sapiens, 3 hours compound, phospho-ERK normalized to GAPDH. Summed up:
as §1

For experiment [6], the system named is phospho-ERK in MKN1 (WTdep) cells. The description is as above. The format is cell-based. The conditions noted are these: Homo sapiens, MKN-1, 3 hours compound, phospho-ERK normalized to GAPDH. Summed up:
as §1

For experiment [7], the system named is phospho-ERK in NCI-H727 (G12V) cells. The description is as above. The format is cell-based. The conditions noted are these: 3 hours compound, phospho-ERK normalized to GAPDH. The gist of the method: as §1
Experiment [8] deals with phospho-ERK in PSN-1 (G12R) cells. The description is as above. The conditions noted are these: Homo sapiens, PSN1, 3 hours compound, phospho-ERK normalized to GAPDH. It is filed as cell-based. Summed up:
as §1

Experiment [9] has as its system phospho-ERK in HCT116 (G13D) cells. The experiment is described as above. It is filed as cell-based. The conditions noted are these: Homo sapiens, HCT-116, 3 hours compound, phospho-ERK normalized to GAPDH. The gist of the method: as §1
Experiment [10] addresses KRas G12D (Homo sapiens, UniProt P01116, G12D). Nature of the experiment: biochemical.
Method: as §2
The target of experiment [11] is KRas G12V (Homo sapiens, UniProt P01116, G12V). Description: biochemical.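 Note: KRas binding measured by TR-FRET displacement at room temperature, IC50 fitted from percent of control values.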
Sequence of KRas G12V (P01116 1-169 isoform P01116-2 G12V): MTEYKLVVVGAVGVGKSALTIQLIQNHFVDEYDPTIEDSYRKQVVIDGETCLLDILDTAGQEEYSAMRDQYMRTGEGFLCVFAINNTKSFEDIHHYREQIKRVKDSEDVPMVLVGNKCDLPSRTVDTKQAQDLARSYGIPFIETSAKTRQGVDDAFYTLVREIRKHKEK
Method: as §2

Sequence of KRas G12D (P01116 1-169 isoform P01116-2 G12D): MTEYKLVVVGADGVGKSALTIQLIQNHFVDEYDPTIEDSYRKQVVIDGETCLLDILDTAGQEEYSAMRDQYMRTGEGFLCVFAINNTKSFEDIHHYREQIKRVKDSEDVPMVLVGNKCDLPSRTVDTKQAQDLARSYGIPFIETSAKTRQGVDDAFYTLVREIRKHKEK

Turning to `Oc1cc(-c2ncc3c(N4CCCC(c5ncn[nH]5)C4)nc(OCC45CCCN4CCC5)nc3c2F)c2c(F)c(F)ccc2c1` (stereo not drawn) [Example 137, 4-(4-(3-(1H-1,2,4-triazol-5-yl)piperidin-1-yl)-8-fluoro-2-((hexahydro-1H-pyrrolizin-7a-yl)methoxy)pyrido[4,3-d]pyrimidin-7-yl)-5,6-difluoronaphthalen-2-ol], the IC50 is 3 nM in experiment [1]; at least 10000 nM in [2] (Homo sapiens, NCI-H460, 3 h); at least 10000 nM in experiment [3]; at least 10000 nM in experiment [4] (Homo sapiens, ASPC1, 3 h); 2040 nM in [5]; at least 10000 nM in [6]. Moreover, the IC50 in experiment [7] (Homo sapiens, NCI-H727, 3 h) is at least 10000 nM; in [8], at least 10000 nM; in experiment [9] it was at least 10000 nM; in [10], at most 2 nM; in experiment [11] it was at most 2 nM.

For the compound `CCc1c(F)ccc2cc(O)cc(-c3ncc4c(NCc5ccc(=O)[nH]c5)nc(OC[C@@]56CCCN5C[C@H](F)C6)nc4c3F)c12` [Example 143], the 50% inhibitory concentration (IC50) was at most 2 nM in experiment [1]; at least 10000 nM in experiment [2] (Homo sapiens, NCI-H460, 3 h); at least 10000 nM in experiment [3]; at least 10000 nM in experiment [4] (Homo sapiens, ASPC1, 3 h); 527 nM in experiment [5]; 300 nM in [6]. Moreover, the 50% inhibitory concentration (IC50) in experiment [7] (Homo sapiens, NCI-H727, 3 h) is at least 10000 nM; in experiment [8], at least 10000 nM; in [9] it was at least 10000 nM; in [10] it was 4 nM; in experiment [11], at most 2 nM.

Turning to `CCc1c(F)ccc2cc(O)cc(-c3ncc4c(N5CCC6(CC5)CC(=O)N6)nc(OC[C@@]56CCCN5C[C@H](F)C6)nc4c3F)c12` [Example 73], the IC50 in experiment [1] was at most 2 nM; in experiment [2] (Homo sapiens, NCI-H460, 3 h), 176 nM; in [3], 191 nM; in [4] (Homo sapiens, ASPC1, 3 h), 3490 nM; in [5] it was 98 nM; in experiment [6] it was 23 nM. The IC50 in [7] (Homo sapiens, NCI-H727, 3 h) is 756 nM; in experiment [8], at least 10000 nM; in experiment [9], 128 nM; in [10] it was 5 nM; in experiment [11], at most 2 nM.

`CCc1c(F)ccc2cc(O)cc(-c3ncc4c(NCCc5c[nH]c6ncccc56)nc(OC[C@@]56CCCN5C[C@H](F)C6)nc4c3F)c12` [Example 157, 4-(4-((2-(1H-pyrrolo[2,3-b]pyridin-3-yl)ethyl)amino)-8-fluoro-2-(((2R,7aS)-2-fluorohexahydro-1H-pyrrolizin-7a-yl)methoxy)pyrido[4,3-d]pyrimidin-7-yl)-5-ethyl-6-fluoronaphthalen-2-ol]: the IC50 is at most 2 nM in [1]; 585 nM in [2] (Homo sapiens, NCI-H460, 3 h); 448 nM in [3]; 751 nM in experiment [4] (Homo sapiens, ASPC1, 3 h); 31 nM in experiment [5]; 31 nM in [6]. Also, the half-inhibitory concentration (IC50) in experiment [7] (Homo sapiens, NCI-H727, 3 h) is 4720 nM; in [8], at least 10000 nM; in [9], 893 nM; in experiment [10], 12 nM; in experiment [11] it was at most 2 nM.

Turning to `CCc1c(F)ccc2cc(O)cc(-c3ncc4c(NCCCc5cc[nH]n5)nc(OC[C@@]56CCCN5C[C@H](F)C6)nc4c3F)c12` [Example 135, 4-(4-((3-(1H-pyrazol-3-yl)propyl)amino)-8-fluoro-2-(((2R,7aS)-2-fluorohexahydro-1H-pyrrolizin-7a-yl)methoxy)pyrido[4,3-d]pyrimidin-7-yl)-5-ethyl-6-fluoronaphthalen-2-ol], the IC50 turned out to be 3 nM in [1]; 647 nM in [2] (Homo sapiens, NCI-H460, 3 h); 2460 nM in [3]; 2060 nM in experiment [4] (Homo sapiens, ASPC1, 3 h); 37 nM in experiment [5]; 53 nM in [6]. Further, the IC50 is at least 10000 nM in experiment [7] (Homo sapiens, NCI-H727, 3 h); at least 10000 nM in experiment [8]; 3270 nM in experiment [9]; 31 nM in experiment [10]; 3 nM in [11].

On to `CCc1c(F)ccc2cc(O)cc(-c3ncc4c(NCc5ccc6[nH]cnc6c5)nc(OC[C@@]56CCCN5C[C@H](F)C6)nc4c3F)c12` [Example 139, 4-(4-(((1H-benzo[d]imidazol-5-yl)methyl)amino)-8-fluoro-2-(((2R,7aS)-2-fluorohexahydro-1H-pyrrolizin-7a-yl)methoxy)pyrido[4,3-d]pyrimidin-7-yl)-5-ethyl-6-fluoronaphthalen-2-ol], for which the half-maximal inhibitory concentration (IC50) in experiment [1] is at most 2 nM; in [2] (Homo sapiens, NCI-H460, 3 h), 7510 nM; in [3] it was at least 10000 nM; in experiment [4] (Homo sapiens, ASPC1, 3 h), at least 10000 nM; in [5], 115 nM; in experiment [6], 307 nM. Also, the half-maximal inhibitory concentration (IC50) is at least 10000 nM in experiment [7] (Homo sapiens, NCI-H727, 3 h); at least 10000 nM in experiment [8]; at least 10000 nM in [9]; 8 nM in experiment [10]; at most 2 nM in experiment [11].

As to `CCc1c(F)ccc2cc(O)cc(-c3ncc4c(N5CCN(c6ncccc6C#N)CC5)nc(OC[C@@]56CCCN5C[C@H](F)C6)nc4c3F)c12` [Example 155], the IC50 in experiment [1] is 3 nM; in experiment [2] (Homo sapiens, NCI-H460, 3 h), 399 nM; in experiment [3] it was at least 10000 nM; in experiment [4] (Homo sapiens, ASPC1, 3 h), 1720 nM; in experiment [5] it was 329 nM; in [6], 196 nM. Further, the IC50 in experiment [7] (Homo sapiens, NCI-H727, 3 h) was 2670 nM; in experiment [8], at least 10000 nM; in [9] it was at least 10000 nM; in [10], 118 nM; in experiment [11] it was 4 nM.

Take `CCc1c(F)ccc2cc(O)cc(-c3ncc4c(NCc5c[nH]cn5)nc(OC[C@@]56CCCN5C[C@H](F)C6)nc4c3F)c12` [Example 164, 4-(4-(((1H-imidazol-4-yl)methyl)amino)-8-fluoro-2-(((2R,7aS)-2-fluorohexahydro-1H-pyrrolizin-7a-yl)methoxy)pyrido[4,3-d]pyrimidin-7-yl)-5-ethyl-6-fluoronaphthalen-2-ol]: the 50% inhibitory concentration (IC50) is 3 nM in experiment [1]; 6820 nM in experiment [2] (Homo sapiens, NCI-H460, 3 h); at least 10000 nM in [3]; at least 10000 nM in experiment [4] (Homo sapiens, ASPC1, 3 h); 602 nM in [5]; 207 nM in [6]. The IC50 was at least 10000 nM in experiment [7] (Homo sapiens, NCI-H727, 3 h); at least 10000 nM in experiment [8]; at least 10000 nM in [9]; 28 nM in experiment [10]; 3 nM in experiment [11].

With `CCc1c(F)ccc2cc(O)cc(-c3ncc4c(N5C[C@H](O)C[C@@H](O)C5)nc(OC[C@@]56CCCN5C[C@H](F)C6)nc4c3F)c12` [Example 59], the half-inhibitory concentration (IC50) in [1] is at most 2 nM; in [2], 296 nM; in experiment [3] it was 3560 nM; in experiment [4], 577 nM; in experiment [5], 176 nM; in experiment [6] it was 107 nM. For the same compound, the concentration for half-maximal inhibition (IC50) in [7] was 769 nM; in experiment [8], at least 10000 nM; in experiment [9], 1270 nM; in experiment [10], at most 2 nM; in [11] it was at most 2 nM.

Turning to `CCc1c(F)ccc2cc(O)cc(-c3ncc4c(N5CCCC(C(N)=O)C5)nc(OC[C@@]56CCCN5C[C@H](F)C6)nc4c3F)c12` (stereo partly drawn) [Example 147], the IC50 is 3 nM in experiment [1]; 383 nM in experiment [2] (Homo sapiens, NCI-H460, 3 h); 1950 nM in experiment [3]; at least 10000 nM in experiment [4] (Homo sapiens, ASPC1, 3 h); 79 nM in [5]; 65 nM in [6]. The IC50 was at least 10000 nM in experiment [7] (Homo sapiens, NCI-H727, 3 h); at least 10000 nM in experiment [8]; at least 10000 nM in [9]; 4 nM in [10]; 3 nM in experiment [11].

For the compound `Cc1n[nH]c(C2CCCN(c3nc(OCC45CCCN4CCC5)nc4c(F)c(-c5cc(O)cc6ccc(F)c(F)c56)ncc34)C2)n1` (stereo not drawn) [Example 138, 5,6-difluoro-4-(8-fluoro-2-((hexahydro-1H-pyrrolizin-7a-yl)methoxy)-4-(3-(3-methyl-1H-1,2,4-triazol-5-yl)piperidin-1-yl)pyrido[4,3-d]pyrimidin-7-yl)naphthalen-2-ol], the IC50 in [1] is 5 nM; in experiment [2] (Homo sapiens, NCI-H460, 3 h), at least 10000 nM; in experiment [3] it was at least 10000 nM; in experiment [4] (Homo sapiens, ASPC1, 3 h), at least 10000 nM; in [5], at least 10000 nM; in [6] it was at least 10000 nM. The 50% inhibitory concentration (IC50) in experiment [7] (Homo sapiens, NCI-H727, 3 h) is at least 10000 nM; in [8], at least 10000 nM; in experiment [9], at least 10000 nM; in experiment [10], 12 nM; in experiment [11] it was 5 nM.

Consider `C#Cc1c(F)ccc2cccc(-c3ncc4c(N5CCCC6(CNC(=O)C6)C5)nc(OC[C@@]56CCCN5C[C@H](F)C6)nc4c3F)c12` (stereo partly drawn) [Example 36, 7-(7-(8-ethynyl-7-fluoronaphthalen-1-yl)-8-fluoro-2-(((2R,7aS)-2-fluorohexahydro-1H-pyrrolizin-7a-yl)methoxy)pyrido[4,3-d]pyrimidin-4-yl)-2,7-diazaspiro[4.5]decan-3-one], for which the IC50 came to 24 nM in experiment [1]; 557 nM in experiment [2] (Homo sapiens, NCI-H460, 3 h); 2150 nM in [3]; 1540 nM in experiment [4] (Homo sapiens, ASPC1, 3 h); 1130 nM in experiment [5]; 1180 nM in experiment [6]. The concentration for half-maximal inhibition (IC50) in experiment [7] (Homo sapiens, NCI-H727, 3 h) is 3390 nM; in [8], at least 10000 nM; in experiment [9], 1610 nM; in experiment [10], 9 nM; in [11], 20 nM.
